Assay results: US5326902A, “Oxyalkyne compounds, pharmaceutical compositions containing them and processes for preparing such compounds and compositions” (Gruenenthal GmbH, priority 1992, dated 1994)

System: Leukotriene-synthesis
Experiment: Inhibition of Leukotriene-synthesis Induced by FMLP/merthiolate of Human Polymorphonuclear Leukocytes
Format: cell-based
Settings: Leukocyte, 5 minutes preincubation at 37° C., centrifuged and resuspended in HBSS before merthiolate (40 μM) and FMLP (10^-7 M), read-out: IC50-value of the reversible inhibitory action
Description: Human granulocytes were isolated by dextran sedimentation and a Percoll gradient method and suspended in HBSS (Hanks buffered saline solution) at 1×10^7 cells/ml. The cells were incubated in the presence of a compound according to the invention or a solvent (ethanol and/or dimethyl sulfoxide) at 37° C. for 2 minutes, then with merthiolate (sodium ethylmercurithiosalicylate; 40 μM) for 2 minutes and thereafter with FMLP (formyl-methionyl-leucylphenylalanine; 10^-7 M) for 15 minutes. After solid phase extraction, the metabolites of arachidonic acid 5-HETE, LTB4, 6-trans-LTB4 -isomers, 20-OH-LTB4 and 20-COOH-LTB4 were identified by RP-HPLC (M. Haurand and L. Flohe in Biochem. Pharmacol. 38, 2129 to 2137 (1989)).
To investigate the reversibility of the inhibitory action, the cells were incubated with a compound according to the invention or a solvent (ethanol and/or dimethyl sulfoxide) at 37° C. for 5 minutes, centrifuged at 300 × g for 5 minutes, and resuspended in 2 ml of HBSS. Then the cells were incubated with merthiolate (40 μM) at 37° C. for 2 minutes and thereafter with FMLP (10^-7 M) for 15 minutes. The IC50 -value of the reversible inhibitory action was 2 μmolar when the compound prepared according to Example 1 was used.

IC50: 2000 nM
SMILES: CC(=O)N(O)Cc1ccc(C(O)C#Cc2ccccc2)cc1 (racemic) [Example 1, N-Hydroxy-N-[4-[1-hydroxy-3-phenyl-prop-2-yn-1-yl]benzyl]acetamide]
